Several values for one entry are separate records, joined by “and”; a condition that tells them apart may be missing. Equal values may be shown once.
Legend:
[1] = tested on: MK-801 binding site in the NMDA channel; assay: [3H]MK-801 displacement binding in homogenate in the presence of NMDA and Gly; conditions: for Hill slope value: dose-response of [3H]MK-801 binding; for displacement of [3H]MK-801: NMDA (100 μM) and Gly (100 μM), 5 nM [3H]MK-801, relative to total binding
Procedure: Now referring to FIG. 3, an example graph 300 that illustrates that at least a subset of the compounds described above have an affinity for the MK-801 binding site in the NMDA channel is presented. More particularly, some triquinylamine compounds may have an affinity for the MK-801 binding site in the NMDA channel. The triquinane-derived azatricycloundecane compounds 100, 102, 108, 116, and 118 (FIGS. 1a, 1b, 1e, 1i, and 1j, respectively) were tested for an ability to displaced labeled MK-801, and the results of such testing are shown in FIG. 3. The graph 300 also illustrates total binding of radiolabeled MK-801 (Total) and non-specific binding of unlabelled MK-801 (NS). […] Specific [^3H]MK-801 binding to the homogenate can be estimated by subtracting non-specific binding (NS) obtained in the presence of 100 μM unlabeled MK-801 from the total binding. Specific binding represented 75% of the total binding and non-specific binding only 25% of total binding at 5 nM [^3H]MK-80 1. Unlabeled MK-80 1 used to determine the non-specific binding also served as a reference compound. NMDA-stimulated displacement for each tested compound was calculated as the difference between the measured value for the labeled MK-801 in the presence of each test compound, and the total binding, although the purpose of the graph 300 represents only the non-specific binding for that particular compound. The compound 118 displaced [^3H]MK-801 by 41.09±4.1%. For the compounds 116, 108, 100, and 102, respectively, there was no statistically significant displacement of [^3H]MK-801, and displacement values were calculated to be 16.93±4.1%, 14.35±7.9%, 20.85±11.7%, and 9.28±6.17%, respectively. Statistical significance compared to total binding in a t-test is (*) p<0.05, (**) p<0.001.
Referring now to FIG. 4, an example graph 400 that illustrates dose-dependent effect of compound 118 shown in FIG. 1j on [^3H]MK-801 binding in the presence of NMDA (100 μM) and Gly (100 μM). More particularly, the graph 400 depicts results of a dose-response curve fitting that was performed to determine the IC50 value for the compound 118. […] The Hill slope values for compounds with high-affinity as NMDA antagonists (MK-801, Memantine, and NGP1-01) are near unity, with lower potency compounds having greater Hill slop values. The Hill slope value for the compound 118 was −1.157±0.052.

L-type calcium channel = assay: IC50 with respect to the L-type calcium channel; assay type: biochemical

Compound	Hill slope value [1]	IC50 (L-type calcium channel)	further results
C[C@]12N[C@H](Cc3ccccc31)c1ccccc12 [MK-801, reference compound]	near unity	–	–
CC12CC3CC(C)(C1)CC(N)(C3)C2 [Memantine, reference compound]	near unity	–	–
OC12C3C4CC5C6C4C1C6C(C53)N2CCc1ccccc1 (centres unmarked) [compound 104, N-phenylethyl-4-azahexacyclo[5.4.1.0^2,6.0.0^5,9.0^8,11]dodecan-3-ol]	–	6.8 µM	–
CCCCCCCN1C2C3C4CC5C6C4C2C6C1(O)C53 (centres unmarked) [compound 106, N-heptyl-4-azahexacyclo[5.4.1.0^2,6.0.0^5,9.0^8,11]dodecan-3-ol]	–	7.5 µM	–
c1ccc(CCNC23OC4C5C6CC(C7C6C4C72)C53)cc1 (centres unmarked) [compound 112, 8-phenylethylamino-8,11-oxapentacyclo[5.4.0.0^2,6.0^3,10.0^5,9]undecane]	–	36.4 µM and 36.9 µM	–
c1ccc(CNC23OC4C5C6CC(C7C6C4C72)C53)cc1 (centres unmarked) [compound 120, 8-benzylamino-8,11-oxapentacyclo[5.4.0.0^2,6.0^3,10.0^5,9]undecane]	near unity	60 µM	–
CCCCCCCN1CCC2CC3CCCC3C21 (centres unmarked) [compound 122, N-heptyl-3,1-azatricyclo[6.3.0.0^2,6]undecane]	–	55 µM	–
N-(pyridin-4-ylmethyl)-3,11-azatricyclo[6.3.0.0^2,6]undecane [compound 102]	–	4.9 µM	displacement of [3H]MK-801 [1]: 9.28±6.17%
N-benzyl-3,11-azatricyclo[6.3.0.0^2,6]undecane [compound 118]	−1.157±0.052	–	displacement of [3H]MK-801 [1]: 41.09±4.1%; affinity for the NMDAR (comparison among triquinane-derived compounds) ([1]; among compounds 100, 102, 108, 116 and 118): highest affinity; IC50 ([1]; in the presence of NMDA (100 μM) and Gly (100 μM), dose-response curve fitting): 1.93 ± 0.018 µM
N-benzyl-4-azahexacyclo[5.4.1.0^2,6.0.0^5,9.0^8,11]dodecan-3-ol [compound 110]	–	32.9 µM	–
N-cyclohexylmethyl-3,11-azatricyclo[6.3.0.0^2,6]undecane [compound 116]	–	46 µM and 53 µM	displacement of [3H]MK-801 [1]: 16.93±4.1%
